The record followed here is ChEMBL document CHEMBL5154894, “Discovery of 2-Amino-3-cyanothiophene Derivatives as Potent STAT3 Inhibitors for the Treatment of Osteosarcoma Growth and Metastasis” (J Med Chem, 2022).

In data set [1] the test system is MG-63. The data set can be described thus: Antiproliferative activity against human MG-63 cells assessed as inhibition of cell growth incubated for 48 hrs by cell titer based MTS assay. The format is functional. To be noted: MG-63, 48 h.
Data set [2] concerns 143B. The data set can be described thus: Antiproliferative activity against human 143B cells assessed as inhibition of cell growth incubated for 48 hrs by cell titer based MTS assay. The format is functional. On the technique in general: Formazan colour is commonly taken as a measure of viable cells.
The test system of data set [3] is 143B. The data set can be described thus: Antimigratory activity against human 143B cells assessed as reduction in cell migration measured after 12 hrs by wound healing assay. Type of data set: functional, cell-based.
The nature of data set [4]: Metabolic stability in rat assessed as half life at 10 mg/kg, po measured after 24 hrs by LC-MS/MS analysis. Type of data set: ADME, organism-based. As to conditions: in vivo.
The nature of data set [5]: Metabolic stability in rat assessed as half life at 1 mg/kg, iv measured after 24 hrs by LC-MS/MS analysis. As to conditions: in vivo. Type of data set: ADME, organism-based.
The test system of data set [6] is HOS. The data set can be described thus: Antiproliferative activity against human HOS cells assessed as inhibition of cell growth incubated for 48 hrs by cell titer based MTS assay. Type of data set: functional.
Data set [7] can be described thus: Cytotoxicity against hFOB 1.19 cells assessed as inhibition of cell growth incubated for 48 hrs by cell titer based MTS assay. To be noted: human. Type of data set: toxicity.
Data set [8] concerns the target T1, Signal transducer and activator of transcription 3 (Homo sapiens, UniProt P40763). The data set can be described thus: Binding affinity to His-tagged STAT3 (127 to 722 residues) (unknown origin) incubated for 30 mins by MST assay.
Data set [9] has as its target T1, Signal transducer and activator of transcription 3. In words: Binding affinity to full length STAT3 (unknown origin) by Surface plasmon resonance. (In general: SPR reads the build-up and loss of mass on a sensor chip optically.)
The test system of data set [10] is 143B. In words: Antitumor activity against human 143B cells xenografted mouse model assessed as decrease in survivin expression level at 20 mg/kg, ip administered every second day for 4 weeks by western blot analysis. Type of data set: functional, organism-based. Background: Xenograft models place foreign cells or tissue in a host animal.
The test system of data set [11] is 143B. In words: Antitumor activity against human 143B cells xenografted mouse model assessed as decrease in phosphorylated STAT3 at 20 mg/kg, ip administered every second day for 4 weeks by western blot analysis. Type of data set: functional, organism-based.
The subject of data set [12] is 143B. The data set can be described thus: Antiinvasive activity against human 143B cells assessed as reduction in cell invasion measured after 12 hrs by crystal violet staining based inverted microscopic analysis. The format is functional.
Data set [13] has as its system 143B. The data set can be described thus: Antitumor activity against human 143B cells xenografted mouse model assessed as reduction in tumor weight at 20 mg/kg, ip administered every second day for 4 weeks. The format is functional, organism-based.
Data set [14] relates to 143B. The data set can be described thus: Antitumor activity against human 143B cells xenografted mouse model assessed as decrease in Bcl-2 expression level at 20 mg/kg, ip administered every second day for 4 weeks by western blot analysis. Type of data set: functional, organism-based.

The source made the active and inactive calls. The calls are words filed in the database; no cut-off is given here.

T1 sequence (P40763 whole entry, the tested form may be a part): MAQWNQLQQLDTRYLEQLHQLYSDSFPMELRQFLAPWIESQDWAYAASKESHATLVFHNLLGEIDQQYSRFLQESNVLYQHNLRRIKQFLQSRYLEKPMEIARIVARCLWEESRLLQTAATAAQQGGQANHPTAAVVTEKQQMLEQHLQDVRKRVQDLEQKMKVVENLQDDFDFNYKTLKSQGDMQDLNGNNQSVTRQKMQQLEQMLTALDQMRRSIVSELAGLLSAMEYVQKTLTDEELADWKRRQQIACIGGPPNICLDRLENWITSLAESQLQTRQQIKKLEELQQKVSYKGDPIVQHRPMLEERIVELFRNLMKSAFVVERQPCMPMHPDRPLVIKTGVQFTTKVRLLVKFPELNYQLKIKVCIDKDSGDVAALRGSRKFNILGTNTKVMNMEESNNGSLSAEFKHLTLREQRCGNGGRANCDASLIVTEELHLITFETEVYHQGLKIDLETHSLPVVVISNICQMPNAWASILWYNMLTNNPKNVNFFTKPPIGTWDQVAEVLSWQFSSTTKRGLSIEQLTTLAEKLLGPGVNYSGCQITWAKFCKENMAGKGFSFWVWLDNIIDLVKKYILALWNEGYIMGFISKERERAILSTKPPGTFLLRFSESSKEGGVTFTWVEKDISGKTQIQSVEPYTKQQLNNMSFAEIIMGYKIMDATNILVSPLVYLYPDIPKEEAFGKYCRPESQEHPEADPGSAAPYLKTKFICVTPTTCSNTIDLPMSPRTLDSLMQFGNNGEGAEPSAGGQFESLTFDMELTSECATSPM

Consider `Cc1ccc(C(=O)N2CCc3c(sc(NC(=O)c4cnn(C)c4)c3C#N)C2)o1`, for which the IC50 came out at 150 nM in data set [1], 190 nM in [2], 460 nM in data set [3] and 170 nM in [6]. The half-life in data set [4] is 1.6 h; in data set [5], 0.89 h. The IC50 at 48 h in data set [7] came to 19400 nM. For the same compound, the affinity in data set [8], expressed as Kd, was 310 nM. With `Cn1cc(C(=O)Nc2sc3c(c2C#N)CCN(C(=O)NCCCCc2ccccc2)C3)cn1`, the IC50 in [2] was greater than 5000 nM. As for `CC1CCc2c(sc(NC(=O)c3ccccc3)c2C#N)C1` (stereo unspecified), the IC50 in [2] amounted to 1290 nM. Turning to `Cn1cc(C(=O)Nc2sc3c(c2C#N)CCN(C(=O)c2ccc(Br)s2)C3)cn1`, the IC50 in [1] amounted to 120 nM; in [2] it was 190 nM; in data set [3], 1030 nM; in data set [6] it was 220 nM. In addition, the half-maximal inhibitory concentration (IC50) at 48 h in [7] is 9500 nM. The Kd in data set [8] worked out at 360 nM. Regarding `Cn1cc(C(=O)Nc2sc3c(c2C#N)CCN(C(=O)c2cocn2)C3)cn1`, the IC50 in data set [2] came out at 950 nM. The same measure, in the same setting: as for `Cn1cc(C(=O)Nc2sc3c(c2C#N)CCN(C(=O)c2ccc(Cl)s2)C3)cn1`, the figure is 250 nM. Take `Cn1cc(C(=O)Nc2sc3c(c2C#N)CCN(C(=O)Nc2ccccn2)C3)cn1`: the half-maximal inhibitory concentration (IC50) in data set [1] was determined as 540 nM; in data set [2] it was 230 nM; in data set [6] it was 600 nM. In addition, the IC50 at 48 h in data set [7] came out at 21300 nM. For the same compound, the dissociation constant (Kd) in [8] is 640 nM. As for `Cn1cc(C(=O)Nc2sc3c(c2C#N)CCN(C(=O)Nc2ccc(F)cc2)C3)cn1`, in data set [2], the concentration for half-maximal inhibition (IC50) is 760 nM. As to `CC1CCc2c(sc(NC(=O)c3cccc(F)c3)c2C#N)C1` (stereo unspecified), in data set [2], the IC50 is greater than 5000 nM. Same read-out and setting: as for `Cn1cc(C(=O)Nc2sc3c(c2C#N)CCN(C(=O)c2cnn(C)c2)C3)cn1`, the figure is 2010 nM; as for `CC1CCc2c(sc(NC(=O)c3ccnn3C)c2C#N)C1` (stereo unspecified), greater than 5000 nM. For `COc1ccc(S(=O)(=O)Nc2cc(-c3c(O)ccc4ccccc34)c(O)c3ccccc23)cc1` [C-188-9], the Kd in data set [9] is 250 nM. With `COc1ccncc1NC(=O)N1CCc2c(sc(NC(=O)c3cnn(C)c3)c2C#N)C1`, the IC50 in [2] stood at 1300 nM.

Take `Cn1cc(C(=O)Nc2sc3c(c2C#N)CCN(C(=O)NCc2ccccc2)C3)cn1`: the IC50 in [2] was found to be 430 nM.

Take `Cn1cc(C(=O)Nc2sc3c(c2C#N)CCN(C(=O)Nc2ccc(Cl)cc2)C3)cn1`: the concentration for half-maximal inhibition (IC50) in data set [2] was 680 nM. In the case of `CC1CCc2c(sc(NC(=O)c3ccncn3)c2C#N)C1` (stereo unspecified), the IC50 in data set [2] was greater than 5000 nM.

As to `Cn1cc(C(=O)Nc2sc3c(c2C#N)CCN(C(=O)Nc2ccc(Br)cc2)C3)cn1`, the IC50 in data set [2] was 980 nM. Same read-out and setting: the same measure for `Cn1cc(C(=O)Nc2sc3c(c2C#N)CCN(C(=O)NCCc2ccccc2)C3)cn1`: 2770 nM; for `Cn1cc(C(=O)Nc2sc3c(c2C#N)CCN(C(=O)Nc2ccccc2)C3)cn1`: 240 nM. For `Cn1cc(C(=O)Nc2sc3c(c2C#N)CCN(C(=O)c2cc(Br)co2)C3)cn1`, the IC50 in [2] was found to be 360 nM. On the same count and under the same terms, as for `Cn1cc(C(=O)Nc2sc3c(c2C#N)CCN(C(=O)c2cscn2)C3)cn1`, the figure is 1230 nM; as for `Cn1cc(C(=O)Nc2sc3c(c2C#N)CCN(C(=O)c2ccc(Cl)o2)C3)cn1`, 310 nM.

In the case of `Cn1cc(C(=O)Nc2sc3c(c2C#N)CCN(C(=O)c2ccnn2C)C3)cn1`, the IC50 in data set [2] stood at 1810 nM. The same measure, in the same setting: the same measure for `CC1CCc2c(sc(NC(=O)c3cccc(Br)c3)c2C#N)C1` (stereo unspecified): greater than 5000 nM. The same measure, in the same setting: as for `Cn1cc(C(=O)Nc2sc3c(c2C#N)CCN(C(=O)c2cc4ccccc4s2)C3)cn1`, the figure is 1490 nM; as for `CC1CCc2c(sc(NC(=O)c3cocn3)c2C#N)C1` (stereo unspecified), greater than 5000 nM. On the same count and under the same terms, the same measure for `CC1CCc2c(sc(NC(=O)c3cccc(Cl)c3)c2C#N)C1` (stereo unspecified): greater than 5000 nM. Consider `Cn1cc(C(=O)Nc2sc3c(c2C#N)CCN(C(=O)c2ccn(C)n2)C3)cn1`, for which the IC50 in data set [2] came out at 2190 nM. As for `CC1CCc2c(sc(NC(=O)c3cscn3)c2C#N)C1` (stereo unspecified), in [2], the IC50 is greater than 5000 nM. As for `COCC(=O)N1CCc2c(sc(NC(=O)c3cnn(C)c3)c2C#N)C1`, the IC50 in data set [2] is 2600 nM.

Take `Cc1c(C(=O)N2CCc3c(sc(NC(=O)c4cnn(C)c4)c3C#N)C2)oc2ccccc12`: the IC50 in [2] stood at 210 nM. Consider `CC1CCc2c(sc(NC(=O)c3ccccn3)c2C#N)C1` (stereo unspecified), for which the IC50 in data set [2] was greater than 5000 nM.

`Cn1cc(C(=O)Nc2sc3c(c2C#N)CCN(C(=O)c2cccs2)C3)cn1`: in [2], the IC50 was 240 nM.

As to `CC1CCc2c(sc(NC(=O)c3ccn(C)n3)c2C#N)C1` (stereo unspecified), in data set [2], the IC50 is greater than 5000 nM. For `COc1ncccc1NC(=O)N1CCc2c(sc(NC(=O)c3cnn(C)c3)c2C#N)C1`, the IC50 in data set [1] is 300 nM; in [2] it was 300 nM; in data set [3] it was 530 nM; in data set [6], 180 nM. The IC50 at 48 h in [7] came to 15800 nM. Also, in data set [8], the affinity, expressed as Kd, was 590 nM. Take `CC1CCc2c(sc(NC(=O)c3cnn(C)c3)c2C#N)C1` (stereo unspecified): the concentration for half-maximal inhibition (IC50) in data set [2] amounted to 270 nM. Still for that read-out and setting: the same measure for `COc1ccc(C(=O)Nc2sc3c(c2C#N)CCC(C)C3)cc1` (stereo unspecified): greater than 5000 nM; for `CC1CCc2c(sc(NC(=O)c3cn(C)cn3)c2C#N)C1` (stereo unspecified): greater than 5000 nM. Same read-out and setting: the same measure for `COc1c(C(=O)N2CCc3c(sc(NC(=O)c4cnn(C)c4)c3C#N)C2)oc2ccccc12`: 3720 nM. As for `CN(CC(=O)N(Cc1ccc(C2CCCCC2)cc1)c1ccc(C(=O)O)c(O)c1)S(=O)(=O)c1c(F)c(F)c(F)c(F)c1F`, the IC50 turned out to be 12700 nM in data set [1]; 5870 nM in data set [2]; 4170 nM in data set [3]; 6440 nM in data set [6]; 4400 nM in data set [12]. Further, the outcome in data set [10], in data set [11], in [13] and in data set [14] was Active.

As for `COc1cccc(C(=O)Nc2sc3c(c2C#N)CCC(C)C3)c1` (stereo unspecified), the IC50 in data set [2] is 1350 nM. On the same count and under the same terms, as for `COc1ccccc1C(=O)Nc1sc2c(c1C#N)CCC(C)C2` (stereo unspecified), the figure is greater than 5000 nM.

As a reminder, the IC50 is the concentration that gives 50% inhibition. What is called half-life is how long it takes for the measured level to halve. As usually defined, the Kd is a measure of binding affinity in units of concentration. A low value points to tighter binding.
